From patent publication US7511145B2 (Genelabs Technologies, Inc., priority 2003, dated 2009)

Target: T1, HCV-NS5b (Hepatitis C virus genotype 1b, UniProt Q9WMX2)
T1 construct: (His)6 (C); made in house; host or cells: XL-1 cells (E. coli), IPTG-inducible plasmid, nickel-NTA purification
Assay: HCV-NS5b enzyme assay (incorporation of radiolabeled UTP)
Format: biochemical
Settings: for inhibition at 33 µM: enzyme inhibition at compound concentration of 33 uM; for inhibition at 100 µM: read-out: % inh@100, enzyme inhibition at compound concentration of 100 uM
In short: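 Percent inhibition, background-corrected against uninhibited control, was measured at 100 and 33 uM compound. Incorporation of [3H]-UTP (10 μM each NTP) into biotinylated HCV-template RNA, 37° C for 2 h, pH 7.5, scintillation proximity. Enzyme: C-terminally truncated (21 aa), His6-tagged NS5b from XL-1.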

Row | Structure (SMILES) | inhibition at 33 µM [%] | inhibition at 100 µM [%]
1 | O=C(O)c1ccc2c(c1)nc(-c1ccc3nc(-c4ccccn4)ccc3c1)n2C1CCCCC1 [Compound 427, 1-cyclohexyl-2-(2-pyridin-2-yl-quinolin-6-yl)-1H-benzoimidazole-5-carboxylic acid] | 93.8 | 98.4
2 | O=C(O)c1ccc2c(c1)nc(-c1ccc3nc(-c4ccc(Oc5ccccc5)cc4)ccc3c1)n2C1CCCCC1 [Compound 428, 1-cyclohexyl-2-[2-(4-phenoxy-phenyl)-quinolin-6-yl]-1H-benzoimidazole-5-carboxylic acid] | 98.8 | 99.6
3 | O=C(O)c1ccc2c(c1)nc(-c1ccc3nc(-c4ccc(N5CCOCC5)cc4)ccc3c1)n2C1CCCCC1 [Compound 429, 1-cyclohexyl-2-[2-(4-morpholin-4-yl-phenyl)-quinolin-6-yl]-1H-benzoimidazole-5-carboxylic acid] | 96.2 | 101
4 | O=C(O)c1ccc2c(c1)nc(-c1ccc3nc(-c4cc(OCCCN5CCCC5)ccc4-c4ccccc4)ccc3c1)n2C1CCCCC1 [Compound 430, 1-Cyclohexyl-2-{2-[4-(3-pyrrolidin-1-yl-propoxy)-biphen-2-yl]-quinolin-6-yl}-1H-benzoimidazole-5-carboxylic acid] | 98 | 96.7
5 | O=C(O)c1ccc2c(c1)nc(-c1ccc3nc(-c4cn(-c5cccnc5Cl)c(=O)[nH]c4=O)ccc3c1)n2C1CCCCC1 [Compound 431, 2-{2-[1-(2-chloro-pyridin-3-yl)-2,4-dioxo-1,2,3,4-tetrahydro-pyrimidin-5-yl]-quinolin-6-yl}-1-cyclohexyl-1H-benzoimidazole-5-carboxylic acid] | 95.3 | 96.4
6 | O=C(O)c1ccc2c(c1)nc(-c1ccc3nc(-c4cc[nH]c4)ccc3c1)n2C1CCCCC1 [Compound 432, 1-cyclohexyl-2-[2-(1H-pyrrol-3-yl)-quinolin-6-yl]-1H-benzoimidazole-5-carboxylic acid] | 88.9 | 96.4
7 | O=C(O)c1ccc2c(c1)nc(-c1ccc3nc(-c4ccccc4)cc(Nc4ccccc4)c3c1)n2C1CCCCC1 [Compound 433, 1-cyclohexyl-2-(2-phenyl-4-phenylamino-quinolin-6-yl)-1H-benzoimidazole-5-carboxylic acid] | 92.5 | 100
8 | COc1cccc(O)c1-c1ccc2cc(-c3nc4cc(C(=O)O)ccc4n3C3CCCCC3)ccc2n1 [Compound 434, 1-cyclohexyl-2-[2-(2-hydroxy-6-methoxy-phenyl)-quinolin-6-yl]-1H-benzoimidazole-5-carboxylic acid] | 105 | 102
9 | O=C(O)c1ccc2c(c1)nc(-c1ccc3nc(-c4cc(C(=O)N5CCCC5)ccc4-c4ccc([N+](=O)[O-])cc4)ccc3c1)n2C1CCCCC1 [Compound 435, 1-cyclohexyl-2-{2-[4′-nitro-4-(pyrrolidine-1-carbonyl)biphen-2-yl]quinolin-6-yl}-1H-benzimidazole-5-carboxylic acid] | 102 | 101
10 | COc1ccc(-c2ccc(C(F)(F)F)cc2)c(-c2ccc3cc(-c4nc5cc(C(=O)O)ccc5n4C4CCCCC4)ccc3n2)c1 [Compound 436, 1-cyclohexyl-2-[2-(4-methoxy-4′-trifluoromethyl-biphen-2-yl)-quinolin-6-yl]-1H-benzoimidazole-5-carboxylic acid] | 98.8 | 99.3
11 | COc1ccc(-c2cccc(C(=O)O)c2)c(-c2ccc3cc(-c4nc5cc(C(=O)O)ccc5n4C4CCCCC4)ccc3n2)c1 [Compound 437, 2-[2-(3′-carboxy-4-methoxy-biphen-2-yl)-quinolin-6-yl]-1-cyclohexyl-1H-benzoimidazole-5-carboxylic acid] | 100 | 101
12 | COc1ccc(-c2ccc(C)cc2)c(-c2ccc3cc(-c4nc5cc(C(=O)O)ccc5n4C4CCCCC4)ccc3n2)c1 [Compound 438, 1-cyclohexyl-2-[2-(4-methoxy-4′-methyl-biphen-2-yl)-quinolin-6-yl]-1H-benzoimidazole-5-carboxylic acid] | 98.7 | 99.6
13 | O=C(O)c1ccc2c(c1)nc(-c1ccc3nc(-c4cc([N+](=O)[O-])ccc4-c4ccc(Cl)cc4)ccc3c1)n2C1CCCCC1 [Compound 439, 2-[2-(4′-chloro-4-nitro-biphen-2-yl)-quinolin-6-yl]-1-cyclohexyl-1H-benzoimidazole-5-carboxylic acid] | 99.2 | 97
14 | O=C(O)c1ccc2c(c1)nc(-c1ccc3nc(-c4ccccc4-c4ccc(Cl)cc4)c(-c4ccccc4)cc3c1)n2C1CCCCC1 [Compound 440, 2-[2-(4′-Chloro-biphen-2-yl)-3-phenyl-quinolin-6-yl]-1-cyclohexyl-1H-benzoimidazole-5-carboxylic acid] | 99.2 | 97.8
15 | COc1ccc(-c2nc3ccc(-c4nc5cc(C(=O)O)ccc5n4C4CCCCC4)cc3nc2-c2ccc(OC)cc2)cc1 [Compound 441, 2-[2,3-Bis-(4-methoxyphenyl)quinoxalin-6-yl]-1-cyclohexyl-1H-benzimidazole-5-carboxylic acid] | 97.3 | 98.8
16 | O=C(O)c1ccc2c(c1)nc(-c1ccc3nc(-c4cnccn4)ccc3c1)n2C1CCCCC1 [Compound 442, 1-cyclohexyl-2-(2-pyrazin-2-yl-quinolin-6-yl)-1H-benzoimidazole-5-carboxylic acid] | 92.5 | 98.2
17 | O=C(O)c1ccc2c(c1)nc(-c1ccc3nc(-c4ccncc4)ccc3c1)n2C1CCCCC1 [Compound 443, 1-cyclohexyl-2-(2-pyridin-4-yl-quinolin-6-yl)-1H-benzoimidazole-5-carboxylic acid] | 87 | 98.7
18 | Cc1ccc2cc(-c3ccc4cc(-c5nc6cc(C(=O)O)ccc6n5C5CCCCC5)ccc4n3)ccc2c1 [Compound 444, 1-cyclohexyl-2-[2-(6-methyl-naphthalen-2-yl)-quinolin-6-yl]-1H-benzoimidazole-5-carboxylic acid] | 99.5 | 101
19 | COCCOc1cccc(-c2ccc3cc(-c4nc5cc(C(=O)O)ccc5n4C4CCCCC4)ccc3n2)c1 [Compound 445, 1-Cyclohexyl-2-{2-[3-(2-methoxy-ethoxy)-phenyl]-quinolin-6-yl}-1H-benzoimidazole-5-carboxylic acid] | 96.9 | 99.6
20 | O=C(O)c1ccc2c(c1)nc(-c1ccc3nc(-c4ccccc4[N+](=O)[O-])ccc3c1)n2C1CCCCC1 [Compound 446] | 96.6 | 101
21 | O=C(O)c1ccc2c(c1)nc(-c1ccc3nc(-c4cc(OCCCN5CCCC5)ccc4-c4ccc(Cl)cc4)ccc3c1)n2C1CCCCC1 [Compound 447, 2-{2-[4′-Chloro-4-(3-pyrrolidin-1-yl-propoxy)-biphen-2-yl]-quinolin-6-yl}-1-cyclohexyl-1H-benzoimidazole-5-carboxylic acid] | 97.8 | 94.9
22 | Cc1oc2ccc(OCc3ccccc3)cc2c1-c1ccc2cc(-c3nc4cc(C(=O)O)ccc4n3C3CCCCC3)ccc2n1 [Compound 448, 2-[2-(5-benzyloxy-2-methyl-benzofuran-3-yl)-quinolin-6-yl]-1-cyclohexyl-1H-benzoimidazole-5-carboxylic acid] | 94.6 | 96
23 | O=C(O)c1ccc2c(c1)nc(-c1ccc3nc(-c4cnn(-c5ccccc5)c4)ccc3c1)n2C1CCCCC1 [Compound 449, 1-cyclohexyl-2-[2-(1-phenyl-1H-pyrazol-4-yl)-quinolin-6-yl]-1H-benzoimidazole-5-carboxylic acid] | 99.8 | 101
24 | O=C(O)c1ccc2c(c1)nc(-c1ccc3nc(-c4ccc[nH]4)ccc3c1)n2C1CCCCC1 [Compound 450, 1-Cyclohexyl-2-[2-(1H-pyrrol-2-yl)-quinolin-6-yl]-1H-benzoimidazole-5-carboxylic acid] | 96.5 | 99.7
25 | O=C(O)c1ccc2c(c1)nc(-c1ccc3nc(-c4ccccc4)cc(NCCCn4ccnc4)c3c1)n2C1CCCCC1 [Compound 451, 1-cyclohexyl-2-[4-(3-imidazol-1-yl-propylamino)-2-phenyl-quinolin-6-yl]-1H-benzoimidazole-5-carboxylic acid] | 76.3 | 95.6
26 | COc1cc(O)c(-c2ccc3cc(-c4nc5cc(C(=O)O)ccc5n4C4CCCCC4)ccc3n2)c(OC)c1 [Compound 452, 1-cyclohexyl-2-[2-(2-hydroxy-4,6-dimethoxy-phenyl)-quinolin-6-yl]-1H-benzoimidazole-5-carboxylic acid] | 102 | 102
27 | COc1ccc(-c2ccco2)c(-c2ccc3cc(-c4nc5cc(C(=O)O)ccc5n4C4CCCCC4)ccc3n2)c1 [Compound 454, 1-cyclohexyl-2-[2-(2-furan-2-yl-5-methoxy-phenyl)-quinolin-6-yl]-1H-benzoimidazole-5-carboxylic acid] | 98.3 | 101
28 | COc1ccc(-c2ccc(F)cc2)c(-c2ccc3cc(-c4nc5cc(C(=O)O)ccc5n4C4CCCCC4)ccc3n2)c1 [Compound 455, 1-Cyclohexyl-2-[2-(4′-fluoro-4-methoxy-biphen-2-yl)-quinolin-6-yl]-1H-benzoimidazole-5-carboxylic acid] | 100 | 99.8
29 | CCOc1ccc(-c2ccc(OC)cc2-c2ccc3cc(-c4nc5cc(C(=O)O)ccc5n4C4CCCCC4)ccc3n2)cc1 [Compound 456, 1-cyclohexyl-2-[2-(4′-ethoxy-4-methoxy-biphen-2-yl)-quinolin-6-yl]-1H-benzoimidazole-5-carboxylic acid] | 100 | 99.7
